Structures are written as SMILES. The source made the active and inactive calls. The calls are words filed in the database; no cut-off is given here.

The text below walks through data of ChEMBL document CHEMBL5385904, “Design, synthesis and biological evaluation of seco-DSP/DCK derivatives reversing P-glycoprotein-mediated paclitaxel resistance in A2780/T cells” (Eur J Med Chem, 2023).

Data set [1] addresses T1, hERG (KCNH2) (Homo sapiens, UniProt Q12809). Description: Inhibition of hERG at 3 uM by patch clamp assay relative to control. It is filed as toxicity.
Data set [2] can be described thus: Stability in human microsomal fraction preincubated for 10 mins followed by NADPH addition and measured upto 60 mins by LC-MS/MS analysis. Format: ADME, microsomes, Microsome. The following applies: time < 70 min, read-out: Stability.
The subject of data set [3] is A2780. Description: Cytotoxicity against human A2780 cells assessed as reduction in cell viability at 10 to 20 uM incubated for 48 hrs by MTT assay. Format: functional, cell-based. The following applies: dose 10-20 µM.
Data set [4] concerns A2780/Taxol. Description: Effect on p-gp expression in human A2780/Taxol cells at 5 to 20 uM by Western blot analysis. It is filed as functional, cell-based. The note with it: dose 5-20 µM.
Data set [5] in a line: Stability in water assessed as parent compound remaining measured immediately by LC-MS/MS analysis. It is filed as physicochemical. The following applies: read-out: Stability.
Data set [6] addresses T1, hERG (KCNH2). Description: Inhibition of hERG at 40 uM by patch clamp assay relative to control. It is filed as toxicity.
The target in data set [7] is Voltage-gated inwardly rectifying potassium channel KCNH2 (Homo sapiens, UniProt Q12809). Description: Inhibition of hERG by patch clamp assay. Format: toxicity.
The target of data set [8] is T2, ATP-dependent translocase ABCB1 (Homo sapiens, UniProt P08183). Description: Inhibition of P-gp in human A2780/Taxol cells assessed as paclitaxel accumulation in cells by measuring increase in fluorescence intensity at 5 to 20 uM incubated for 8 hrs. Format: cell-based. The following applies: dose 5-20 µM.
Data set [9] addresses T2, ATP-dependent translocase ABCB1. Description: Inhibition of P-gp in human A2780/Taxol cells assessed as paclitaxel accumulation in cells by measuring increase in fluorescence intensity at 2.5 to 20 uM incubated for 8 hrs. Format: cell-based. The following applies: dose 2.5-20 µM.
For data set [10], the system named is A2780/Taxol. Description: Reversal of multidrug resistance in human A2780/Taxol Cells assessed as reversal fold of paclitaxel IC50 at 10 uM incubated for 48 hrs by MTT assay. Format: functional.
Data set [11] deals with T2, ATP-dependent translocase ABCB1. Description: Inhibition of P-gp-mediated rhodamine-123 efflux in human A2780/Taxol cells assessed as increase in fluorescence intensity at 10 uM by flow cytometric analysis. Format: cell-based. The following applies: 1 h, TDE = time-dependent effect, time < 60 min.
The test system of data set [12] is A2780/Taxol. Description: Reversal of multi-drug resistance in human A2780/Taxol cells at 5 to 20 uM incubated for 48 hrs by MTT assay. The following applies: dose 5-20 µM. Format: functional, cell-based.
The target of data set [13] is T2, ATP-dependent translocase ABCB1. Description: Inhibition of P-gp in human A2780/Taxol cells assessed as paclitaxel accumulation in cells by measuring increase in fluorescence intensity at 2.5 to 10 uM incubated for 8 hrs. It is filed as cell-based. The note with it: dose 2.5-10 µM.
A short description of data set [14]: Stability in mouse plasma assessed as parent compound remaining measured at 30 mins by LC-MS/MS analysis. It is filed as ADME, cell-free. The following applies: read-out: Stability.
Data set [15] relates to A2780/Taxol. Description: Reversal of multi-drug resistance in human A2780/Taxol cells incubated for 48 hrs by MTT assay. Format: functional, cell-based.
The target in data set [16] is T2, ATP-dependent translocase ABCB1. Description: Inhibition of P-gp-mediated rhodamine-123 efflux in human A2780/Taxol cells assessed as increase in fluorescence intensity at 10 uM measured upto 60 mins by flow cytometric analysis. It is filed as cell-based. The note with it: 1 h.
Data set [17] deals with A2780. Description: Reversal of drug-sensitive human A2780 cells at 2.5 to 20 uM incubated for 48 hrs in presence of paclitaxel by MTT assay. It is filed as functional, cell-based. The following applies: dose 2.5-20 µM.
For data set [18], the target named is T2, ATP-dependent translocase ABCB1. Description: Inhibition of P-gp in human A2780/Taxol cells assessed as paclitaxel accumulation in cells by measuring increase in fluorescence intensity incubated for 8 hrs. It is filed as cell-based. The note with it: at 2.5 to 20 µM, dose 2.5-20 µM.
Data set [19] in a line: Stability in mouse plasma assessed as parent compound remaining measured immediately by LC-MS/MS analysis. The following applies: read-out: Stability. It is filed as ADME, cell-free.
The subject of data set [20] is A2780/Taxol. Description: Cytotoxicity against human A2780/Taxol cells assessed survival rate at 10 uM incubated for 48 hrs by MTT assay. It is filed as functional.
The nature of data set [21]: Stability in water assessed as parent compound remaining measured at 30 mins by LC-MS/MS analysis. The following applies: read-out: Stability. It is filed as physicochemical.
Data set [22] has as its system A2780/Taxol. Description: Reversal of multi-drug resistance in human A2780/Taxol cells at 10 to 20 uM incubated for 48 hrs by MTT assay. The following applies: dose 10-20 µM. It is filed as functional, cell-based.

T2 sequence (P08183 whole entry): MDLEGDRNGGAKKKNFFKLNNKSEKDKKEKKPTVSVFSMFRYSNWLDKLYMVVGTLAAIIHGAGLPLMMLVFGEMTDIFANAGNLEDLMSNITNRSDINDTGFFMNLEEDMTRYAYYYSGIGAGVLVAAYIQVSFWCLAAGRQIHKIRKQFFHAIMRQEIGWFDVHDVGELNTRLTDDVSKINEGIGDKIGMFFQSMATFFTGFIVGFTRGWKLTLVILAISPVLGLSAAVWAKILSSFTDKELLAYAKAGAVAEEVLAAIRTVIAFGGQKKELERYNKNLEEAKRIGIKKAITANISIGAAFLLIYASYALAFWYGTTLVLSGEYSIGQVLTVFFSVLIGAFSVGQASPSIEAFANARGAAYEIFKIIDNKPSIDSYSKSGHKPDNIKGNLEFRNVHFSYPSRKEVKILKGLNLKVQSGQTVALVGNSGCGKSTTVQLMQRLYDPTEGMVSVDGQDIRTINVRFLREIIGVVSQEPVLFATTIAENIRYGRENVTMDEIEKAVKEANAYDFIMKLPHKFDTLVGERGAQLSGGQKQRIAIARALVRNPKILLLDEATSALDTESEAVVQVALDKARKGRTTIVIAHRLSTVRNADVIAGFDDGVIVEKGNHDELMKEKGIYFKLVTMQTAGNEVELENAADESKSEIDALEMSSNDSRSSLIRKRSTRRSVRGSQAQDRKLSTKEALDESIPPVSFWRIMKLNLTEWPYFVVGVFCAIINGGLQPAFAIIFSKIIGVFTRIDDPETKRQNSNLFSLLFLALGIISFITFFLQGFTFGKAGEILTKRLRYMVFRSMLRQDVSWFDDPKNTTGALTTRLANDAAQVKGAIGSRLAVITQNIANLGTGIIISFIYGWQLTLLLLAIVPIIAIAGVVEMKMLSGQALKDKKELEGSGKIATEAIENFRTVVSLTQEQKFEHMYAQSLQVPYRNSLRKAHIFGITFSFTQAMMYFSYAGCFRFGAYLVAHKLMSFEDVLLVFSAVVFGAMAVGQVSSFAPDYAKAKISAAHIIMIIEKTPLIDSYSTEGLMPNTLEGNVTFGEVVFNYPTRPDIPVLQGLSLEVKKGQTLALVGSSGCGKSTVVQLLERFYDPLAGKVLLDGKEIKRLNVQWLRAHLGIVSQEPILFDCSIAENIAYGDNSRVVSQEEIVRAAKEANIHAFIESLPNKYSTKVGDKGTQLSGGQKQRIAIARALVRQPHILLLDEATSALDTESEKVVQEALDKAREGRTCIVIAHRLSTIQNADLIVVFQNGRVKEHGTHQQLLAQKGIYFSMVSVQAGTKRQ
T1 sequence (Q12809 whole entry): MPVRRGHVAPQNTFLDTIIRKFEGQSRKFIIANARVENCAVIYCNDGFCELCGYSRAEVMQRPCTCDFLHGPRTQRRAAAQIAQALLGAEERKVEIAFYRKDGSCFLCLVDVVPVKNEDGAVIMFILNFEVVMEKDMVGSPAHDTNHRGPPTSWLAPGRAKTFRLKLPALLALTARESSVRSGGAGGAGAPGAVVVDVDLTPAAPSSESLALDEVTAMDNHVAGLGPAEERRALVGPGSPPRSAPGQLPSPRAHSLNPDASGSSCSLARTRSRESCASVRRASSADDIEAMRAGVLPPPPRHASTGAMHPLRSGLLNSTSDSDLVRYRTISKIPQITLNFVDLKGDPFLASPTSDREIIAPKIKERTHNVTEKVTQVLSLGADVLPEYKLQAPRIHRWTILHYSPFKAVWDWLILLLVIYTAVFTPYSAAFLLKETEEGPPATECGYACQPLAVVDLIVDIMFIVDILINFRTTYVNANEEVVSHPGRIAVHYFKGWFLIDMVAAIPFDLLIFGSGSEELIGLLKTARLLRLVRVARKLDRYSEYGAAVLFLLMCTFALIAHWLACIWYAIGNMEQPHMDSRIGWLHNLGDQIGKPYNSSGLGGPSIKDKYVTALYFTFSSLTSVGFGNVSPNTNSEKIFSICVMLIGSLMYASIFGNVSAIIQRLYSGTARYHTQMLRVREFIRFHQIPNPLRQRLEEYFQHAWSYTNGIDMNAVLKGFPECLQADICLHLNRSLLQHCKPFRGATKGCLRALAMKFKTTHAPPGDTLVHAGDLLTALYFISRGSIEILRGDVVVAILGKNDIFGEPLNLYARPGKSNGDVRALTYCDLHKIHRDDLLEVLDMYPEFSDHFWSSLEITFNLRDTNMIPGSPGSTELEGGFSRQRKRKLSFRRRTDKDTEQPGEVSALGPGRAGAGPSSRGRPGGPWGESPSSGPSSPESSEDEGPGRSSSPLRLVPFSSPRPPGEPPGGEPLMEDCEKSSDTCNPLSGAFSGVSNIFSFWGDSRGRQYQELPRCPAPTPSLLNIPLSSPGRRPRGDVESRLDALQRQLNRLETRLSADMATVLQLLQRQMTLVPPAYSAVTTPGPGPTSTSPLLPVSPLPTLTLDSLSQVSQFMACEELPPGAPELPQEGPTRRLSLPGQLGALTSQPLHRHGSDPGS
Sequence of Voltage-gated inwardly rectifying potassium channel KCNH2 (Q12809 whole entry): as above

On hERG (KCNH2) [1], `COc1cc(N)c(Cl)cc1C(=O)NC1CCN(CCCOc2ccc(F)cc2)CC1OC` (centres undefined) [CISAPRIDE] registered an inhibition at 3 µM of 98%.
Consider `COc1cc(CC(=O)OCc2c(OC(C)C)ccc3c(C)c(Cc4ccccc4)c(=O)oc23)cc(OC)c1OC`, for which the remaining at 1 h in data set [2] turned out to be 0.877%. Further, the outcome in the data set on A2780 [3], in the data set on A2780/Taxol [4], in the data set with A2780/Taxol [12] and in the data set with A2780 [17] was Active. Further, the remaining at 0 min in data set [5] and in data set [19] was 100% each time. For the same molecule, the inhibition at 40 µM against hERG (KCNH2) [6] stood at 19%. Moreover, the IC50 in data set [7] was more than 40 µM; with A2780/Taxol [15], 0.01 µM. Moreover, the “inhibition (INH)” value in [8] is recorded as “Active”; in data set [9], “Active”; in data set [11], “Tde”; in data set [13], “Active”; in data set [16], “Active”; in [18] it was “Dose-Dependent Effect”. Further, the “fold change (FC)” value with A2780/Taxol [10] came to 425. Moreover, the remaining at 0.5 h in data set [14] amounted to 0.72%; in [21], 89.1%. Further, the Activity result with A2780/Taxol [15] (dose 2.5-20 µM) is “Dose-Dependent Effect”. Moreover, the Cell survival rate in the data set with A2780/Taxol [20] is 81%.
As for `CCOc1ccc2c(=O)cc(CC)oc2c1CNC(=O)/C=C/c1ccc(OC)cc1`, the remaining at 1 h in data set [2] is 11.8%. Further, the “fold change (FC)” value with A2780/Taxol [10] is 153. Also, in the data set on A2780/Taxol [15], the IC50 came out at 0.029 µM. This molecule returned a Cell survival rate in the data set with A2780/Taxol [20] of 91%.
For `CCc1cc(=O)c2ccc(OC(C)C)c(CNC(=O)/C=C/c3ccc(OC)cc3)c2o1`, in that order: 29.4%, 142, 0.031 µM and 79%.
`CCOc1ccc2c(C)cc(=O)oc2c1CNC(=O)/C=C/c1ccc(OC)cc1`: the remaining at 1 h in [2] turned out to be 44.3%. At hERG (KCNH2) [6], this molecule displayed an inhibition at 40 µM of 32.5%. Moreover, the results for the IC50 (in data set [7]; in the data set on A2780/Taxol [15]) were more than 40 µM and 0.029 µM, respectively. Further, the “fold change (FC)” value with A2780/Taxol [10] is 150. Besides, in the data set with A2780/Taxol [20], the Cell survival rate was 96%.
Regarding `COc1ccc(CCN(C)CCCC(C#N)(c2ccc(OC)c(OC)c2)C(C)C)cc1OC` (centres undefined) [VERAPAMIL], the result in the data set on A2780 [3], with A2780/Taxol [22] and in the data set on A2780 [17] was Active. Besides, the Cell survival rate in the data set with A2780/Taxol [20] was 81%.
Turning to `COc1cc2c(cc1OC)CN(CCc1ccc(NC(=O)c3cc(OC)c(OC)cc3NC(=O)c3cnc4ccccc4c3)cc1)CC2` [TARIQUIDAR], the result in the data set on A2780 [3], with A2780/Taxol [22] and in the data set on A2780 [17] was Active. For the same molecule, the “inhibition (INH)” value in [8] is “Active”.
On to `Cc1c(Cc2ccccc2)c(=O)oc2c(COC(=O)c3ccc(F)cc3)c(OC(C)C)ccc12`, for which the “fold change (FC)” value in the data set on A2780/Taxol [10] is 51. For the same molecule, the IC50 in the data set on A2780/Taxol [15] stood at 0.086 µM. The molecule further gave a Cell survival rate with A2780/Taxol [20] of 82%.
On to `CCOc1ccc2c(C)c(Cc3ccc(F)cc3)c(=O)oc2c1COC(=O)/C=C/c1ccc(OC)cc1`, for which the “fold change (FC)” value in the data set with A2780/Taxol [10] was found to be 13. The IC50 in the data set with A2780/Taxol [15] came out at 0.34 µM. This molecule also came in with a Cell survival rate in the data set with A2780/Taxol [20] of 92%.
For `Cc1c(Cc2ccccc2)c(=O)oc2c(COC(=O)Cc3ccccc3)c(OC(C)C)ccc12`, in that order: 58, 0.076 µM and 83%.
For `Cc1cc(=O)oc2c(C(=O)Nc3ccc(OC(F)(F)F)cc3)c(OC(C)C)ccc12`, in that order: 14, 0.315 µM and 60%.
`COc1cc(C(=O)OCc2c(OC(C)C)ccc3c(C)c(CCc4ccccc4)c(=O)oc23)cc(OC)c1OC`: the “fold change (FC)” value in the data set with A2780/Taxol [10] is reported as 140. The IC50 with A2780/Taxol [15] turned out to be 0.031 µM. For the same molecule, the Cell survival rate in the data set with A2780/Taxol [20] is reported as 91%.
For `COc1cc(CCC(=O)OCc2c(OC(C)C)ccc3c(C)c(Cc4ccccc4)c(=O)oc23)cc(OC)c1OC`, in that order: 82, 0.053 µM and 90%.
For `COc1cc(CC(=O)OCc2c(OC(C)C)ccc3c(C)c(-c4ccccc4)c(=O)oc23)cc(OC)c1OC`, in that order: 101, 0.043 µM and 97%.
For the molecule `COc1cc(CC(=O)OCc2c(OC(C)C)ccc3c(C)c(Cc4ccc(C#N)cc4)c(=O)oc23)cc(OC)c1OC`, the “fold change (FC)” value in the data set with A2780/Taxol [10] stood at 50. Besides, the IC50 in the data set on A2780/Taxol [15] stood at 0.088 µM. Besides, the Cell survival rate in the data set on A2780/Taxol [20] is listed as 81%.
For `Cc1c(Cc2ccccc2)c(=O)oc2c(COC(=O)c3ccccc3)c(OC(C)C)ccc12`, in that order: 71, 0.062 µM and 81%.
For `Cc1c(Cc2ccccc2)c(=O)oc2c(COC(=O)/C=C/c3ccccc3)c(OC(C)C)ccc12`, in that order: 16, 0.276 µM and 95%.
